In brackets after ≈: the same amount, converted by molar mass. Several values for one entry are separate records, joined by “and”; a condition that tells them apart may be missing. Equal entries are not always repeated. Residues, ends and D or L forms follow the SMILES beside them.
Columns and labels:
[1] = Hemolysis assay; format: cell-based; conditions: for HC50 at 1 h: human, washed erythrocytes from EDTA-blood, pH 7.4
How it was run: (§1)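 Washed EDTA-blood erythrocytes in 5% PBS, pH 7.4, were rotated 1 h at 37° C with peptides at 0, 3, 10, 30, 60 μm. Hemoglobin release read at 540 nm as % of 0.1% Triton X-100 hemolysis; CC50 from dose-response curve of triplicates.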

[2] = tested on: multidrug-resistant K. pneumoniae ATCC 700603; format: cell-based, Klebsiella pneumoniae
Experimental: The Gram-negative opportunistic pathogen K. pneumoniae is responsible for a spectrum of community-acquired and nosocomial infections and typically infects patients with indwelling medical devices, on which this microorganism is able to grow as a biofilm.
(§2) A sample of each culture was then diluted 40-fold in fresh broth and incubated at 37° C. for 1.5-3 h. […] All the plates were covered and incubated at 37° C. for 18 h.
(§3) Inhibition of bacterial growth was determined using resazurin as a marker for cell viability. Resazurin was added to each well, at 0.001% final concentration, and plates incubated at 37° C. for 2 h. Fluorescence intensity was measured, using F (top read), ex 560/10 nm, em 590/10 nm, using a Tecan M1000 Pro monochromator plate reader.

[3] = tested on: C. albicans ATCC 928; conditions: for MIC, C. albicans ATCC 90028: ATCC 928; for MIC: ATCC 928, 18 h, pH 7.4
[4] = Cytotoxicity (resazurin) assay
How it was run: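 CC50 values were derived by fitting concentration-dependent percentage cytotoxicity to a dose–response function. The read-out was resazurin fluorescence (ex 560, em 590 nm; 100 μM, 3 h) after 20 h compound treatment of HEK293 cells at 37 °C in DMEM with 10% FBS.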

[5] = tested on: P. aeruginosa ATCC 27853; format: cell-based, Pseudomonas aeruginosa; conditions: ATCC 27853, 2 h
Experimental: as §3

[6] = tested on: E. coli ATCC 25922; format: cell-based, Escherichia coli; conditions: ATCC 25922, 2 h
Experimental: as §3

[7] = tested on: methicillin-resistant S. aureus strain (ATCC 43300); format: cell-based, Staphylococcus aureus; conditions: ATCC 43300, 18 h
Experimental: Furthermore, sensitivity of a methicillin-resistant S. aureus strain (ATCC 43300) was investigated for palmitoylated CIDAMPs in a microtiter plate screening model, with incubation in Mueller-Hinton medium at 37° C. for 18 h using resazurin as a marker for cell viability.
as §2, §3

[8] = tested on: C. neoformans
[9] = tested on: A. baumannii ATCC 19606; format: cell-based, Acinetobacter baumannii; conditions: ATCC 19606, 2 h
Experimental: as §3

[10] = tested on: erythrocytes; assay: Hemolysis assay; format: cell-based
How it was run: as §1

[11] = tested on: Salmonella typhimurium ATCC 13311; assay: CFU-assay, antimicrobial activity spectrum; format: cell-based
[12] = tested on: Burkholderia cepacia ATCC 25416; assay: CFU-assay, Burkholderia cepacia-cidal activity; format: cell-based
[13] = tested on: Streptococcus pneumoniae ATCC 33400; assay: CFU-assay, antimicrobial activity spectrum; format: cell-based; conditions: pH 7.3, 0.25% glucose
[14] = tested on: Escherichia coli ATCC11775; assay: CFU-assay, antimicrobial activity spectrum; format: cell-based
[15] = tested on: Staphylococcus epidermidis ATCC 14990; assay: CFU-assay, antimicrobial activity spectrum; format: cell-based; conditions: pH 5.5, 0.25% glucose
[16] = tested on: P. aeruginosa ATCC 10145; assay: CFU-assay, P. aeruginosa-cidal activity; format: cell-based, Pseudomonas aeruginosa
[17] = tested on: Klebsiella pneumoniae ATCC 13883; assay: CFU-assay, Klebsiella pneumoniae-cidal activity; format: cell-based
[18] = tested on: S. aureus ATCC 6538; assay: CFU-assay, S. aureus-cidal activity; format: cell-based, Staphylococcus aureus
How it was run: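 Bactericidal CFU-assay in nutrient-deficient 10 mM sodium phosphate buffer pH 5.5 with 0.25% glucose, counting surviving colonies across twofold peptide dilutions from 300 μg/ml to 19 ng/ml. Output is minimal bactericidal concentration (e.g. MBC90, MBC100); some peptides also tested at pH 7.0.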

[19] = tested on: Streptococcus pyogenes ATCC 12344; assay: CFU-assay, antimicrobial activity spectrum; format: cell-based
[20] = standard conditions at pH 7.4, activity at concentration <32 pg/ml

Compound: CCCCCCCCCCCCCCCC(=O)NCC(=O)N[C@H](CCCNC(=N)N)C(=O)N[C@H](CCCNC(=N)N)C(=O)NCC(=O)NCC(=O)N[C@H](CCCNC(=N)N)C(=O)NCC(=O)NCC(=O)N[C@H](CCCNC(=N)N)C(=O)NCC(=O)N[C@H](CCCNC(=N)N)C(=O)NCC(=O)N[C@H](CCCNC(=N)N)C(=O)O [D-Pal-GR13] (HELM PEPTIDE1{[CCCCCCCCCCCCCCCC(=O)[*:2]].G.[dR].[dR].G.G.[dR].G.G.[dR].G.[dR].G.[dR]}$$$$V2.0)
- HC50 [1]: 65 µg/mL
- HC50 at 1 h [1]: 24.5 µM
- MIC, K. pneumoniae ATCC 700603 [2]: ≥32 µg/mL
- MIC, C. albicans ATCC 90028 [3]: ≥8 µg/mL
- CC50 [4]: > 32 µg/mL and > 20.1 µM
- MIC, P. aeruginosa ATCC 27853 [5]: ≥16 µg/mL
- MIC, E. coli ATCC 25922 [6]: ≥8 µg/mL
- MIC, S. aureus ATCC 43300 [7]: ≥2 µg/mL
- MIC, C. neoformans ATCC 208821 [8]: ≥2 µg/mL
- MIC, A. baumannii ATCC 19606 [9]: ≥8 µg/mL

Compound: CCCCCCCCCCCCCCCC(=O)NCC(=O)N[C@@H](CCCNC(=N)N)C(=O)N[C@@H](CCCNC(=N)N)C(=O)NCC(=O)NCC(=O)N[C@@H](CCCNC(=N)N)C(=O)NCC(=O)NCC(=O)N[C@@H](CCCNC(=N)N)C(=O)NCC(=O)N[C@@H](CCCNC(=N)N)C(=O)NCC(=O)N[C@@H](CCCNC(=N)N)C(=O)O [Pal-GR13] (HELM PEPTIDE1{[CCCCCCCCCCCCCCCC(=O)[*:2]].G.R.R.G.G.R.G.G.R.G.R.G.R}$$$$V2.0)
- HC50 [1]: 100 µg/mL
- HC50 at 1 h [1]: 62 µM
- MIC, K. pneumoniae ATCC 700603 [2]: ≥16 µg/mL
- MIC, C. albicans ATCC 90028 [3]: ≥4 µg/mL
- MIC [3]: 1 to 32 µg/mL
- CC50 [4]: > 32 µg/mL and > 20.1 µM
- MIC, P. aeruginosa ATCC 27853 [5]: ≥8 µg/mL
- MIC, E. coli ATCC 25922 [6]: ≥4 µg/mL
- MIC, S. aureus ATCC 43300 [7]: ≥0.25 µg/mL
- MIC, C. neoformans ATCC 208821 [8]: ≥0.25 µg/mL
- MIC, A. baumannii ATCC 19606 [9]: ≥2 µg/mL

Compound: CCCCCCCCCCCCCCCC(=O)NCC(=O)N[C@@H](CCCNC(=N)N)C(=O)N[C@@H](CCCNC(=N)N)C(=O)NCC(=O)N[C@@H](CO)C(=O)NCC(=O)N[C@@H](CC(C)C)C(=O)NCC(=O)N[C@@H](CCCNC(=N)N)C(=O)N[C@@H](CO)C(=O)N[C@@H](CO)C(=O)N[C@@H](CO)C(=O)N[C@@H](CCCNC(=N)N)C(=O)NCC(=O)N[C@@H](CCC(N)=O)C(=O)N[C@@H](CCCNC(=N)N)C(=O)NCC(=O)N[C@@H](CO)C(=O)NCC(=O)N[C@@H](CO)C(=O)NCC(=O)N[C@@H](CCCNC(=N)N)C(=O)O [Pal-HR 1-18 HR] (HELM PEPTIDE1{[CCCCCCCCCCCCCCCC(=O)[*:2]].G.R.R.G.S.G.L.G.R.S.S.S.R.G.Q.R.G.S.G.S.G.R}$$$$V2.0)
- HC50 [1]: > 300 µg/mL
- HC50 at 1 h [1]: > 119 µM
- hemolytic activity (in words) [10]: low hemolytic activity
- MIC [3]: 1 to 32 µg/mL
- CC50 [4]: > 32 µg/mL and > 13.3 µM
- MIC, P. aeruginosa ATCC 27853 [5]: ≥16 µg/mL
- MIC, E. coli ATCC 25922 [6]: ≥4 µg/mL
- MIC, S. aureus ATCC 43300 [7]: ≥8 µg/mL
- MIC, C. neoformans ATCC 208821 [8]: ≥1 µg/mL
- MIC, A. baumannii ATCC 19606 [9]: ≥1 µg/mL

Compound: CCCCCCCCCCCCCCCC(=O)N[C@@H](CO)C(=O)N[C@@H](Cc1c[nH]cn1)C(=O)N[C@@H](Cc1c[nH]cn1)C(=O)N[C@@H](CCCNC(=N)N)C(=O)N[C@@H](CS)C(=O)N[C@@H](CS)C(=O)N[C@@H](CCCNC(=N)N)C(=O)N[C@@H](CO)C(=O)N[C@@H](Cc1c[nH]cn1)C(=O)N[C@@H](CCCNC(=N)N)C(=O)N[C@@H](CS)C(=O)N[C@@H](CCCNC(=N)N)C(=O)N[C@@H](CCCNC(=N)N)C(=O)O [Pal-LCE3B56-68] (HELM PEPTIDE1{[CCCCCCCCCCCCCCCC(=O)[*:2]].S.H.H.R.C.C.R.S.H.R.C.R.R}$$$$V2.0)
- CC50 [1]: > 100 µg/mL
- HC50 at 1 h [1]: > 78 µM
- MBC90 ([11]; pH 5.5): 0.02 µM
- MBC100 ([11]; pH 5.5): 0.155 µM
- MBC90 ([11]; pH 5.5, 0.25% glucose): 0.038 µg/mL
- MBC100 ([11]; pH 5.5, 0.25% glucose): 0.3 µg/mL
- MBC90 ([11]; pH 7.3, 0.25% glucose): 1.18 µg/mL
- MBC100 ([11]; pH 7.3, 0.25% glucose): 2.35 µg/mL
- MIC, C. albicans ATCC 90028 [3]: ≥1 µg/mL
- MIC [3]: 1 to 32 µg/mL
- Antifungal activity, C. albcans ATCC90028 [3, 20]: A (A-active)
- CC50 [4]: > 32 µg/mL and > 16.6 µM
- MBC90 ([12]; pH 5.5, 0.25% glucose): >300 µg/mL
- MBC100 ([12]; pH 5.5, 0.25% glucose): >300 µg/mL
- MB100 ([12]; pH 7.3): 4.9 µM
- MBC90 ([12]; pH 7.3): 2.4 µM
- MBC90 ([12]; pH 7.3, 0.25% glucose): 4.7 µg/mL
- MBC100 ([12]; pH 7.3, 0.25% glucose): 9.38 µg/mL (≈ 4.85 µM)
- MBC100 ([12]; pH 7.3, 0.25% glucose, listed as palmitoyl-LCE3B56-68): 9.375 µg/mL (≈ 4.85 µM)
- MBC90 [13]: 0.59 µg/mL (≈ 0.305 µM)
- MBC100 [13]: 2.35 µg/mL (≈ 1.22 µM)
- MBC90 ([14]; pH 5.5, 0.25% glucose): 0.3 µg/mL (≈ 0.155 µM)
- MBC90 ([14]; pH 7.3, 0.25% glucose): 0.59 µg/mL (≈ 0.305 µM)
- MBC100 ([14]; pH 7.3, 0.25% glucose): 1.18 µg/mL (≈ 0.611 µM)
- MBC90 [15]: 0.3 µg/mL (≈ 0.155 µM)
- MBC100 [15]: 0.3 µg/mL (≈ 0.155 µM)
- P. aeruginosa MBC90 ([16]; pH 5.5): 0.088 µM
- P. aeruginosa MBC100 ([16]; pH 5.5): 0.176 µM
- MBC90 ([16]; pH 5.5, 0.25% glucose): 0.075 µg/mL (≈ 0.0388 µM)
- MBC100 ([16]; pH 5.5, 0.25% glucose): 0.3 µg/mL (≈ 0.155 µM)
- MBC90 ([17]; pH 5.5): 0.052 µM
- MBC100 ([17]; pH 5.5): 4.9 µM
- MBC90 ([17]; pH 5.5, 0.25% glucose): 0.15 µg/mL
- MBC100 ([17]; pH 5.5, 0.25% glucose): 9.375 µg/mL
- MBC90 ([17]; pH 7.3, 0.25% glucose): 2.35 µg/mL
- MBC100 ([17]; pH 7.3, 0.25% glucose): 4.7 µg/mL
- MIC, S. aureus ATCC 43300 [7]: ≥16 µg/mL
- MIC, C. neoformans ATCC 208821 [8]: ≥0.25 µg/mL
- Antifungal activity, C. neoformans ATCC 208821 [8, 20]: A (A-active)
- S. aureus MBC90 ([18]; pH 5.5): 0.011 µM
- S. aureus MBC100 ([18]; pH 5.5): 0.078 µM
- MBC90 ([18]; pH 5.5, 0.25% glucose): <0.019 µg/mL
- MBC100 ([18]; pH 5.5, 0.25% glucose): 0.15 µg/mL (≈ 0.0776 µM)
- MBC90 ([19]; pH 6.0, 0.25% glucose): 0.15 µg/mL (≈ 0.0776 µM)
- MBC100 ([19]; pH 6.0, 0.25% glucose): 0.59 µg/mL (≈ 0.305 µM)
- MBC90 ([19]; pH 7.3, 0.25% glucose): 0.15 µg/mL (≈ 0.0776 µM)
- MBC100 ([19]; pH 7.3, 0.25% glucose): 0.3 µg/mL (≈ 0.155 µM)

Reference: patent publication US11479587B2, “Cationic intrinsically disordered antimicrobial peptides” (priority 2016, dated 2022)
